The subject of test [1] is CD18 expression on neutrophils. The test can be described thus: fMLF-induced neutrophil CD18 expression. Type of test: cell-based. The following applies: Homo sapiens, 0.5 h, 30 nM fMLF, 30 minutes, flow cytometry. How it is done: CD18/CD11b (Mac-1) expression on neutrophils was measured with the following modifications. (Derian, C. K., et al., J Immunol, 1995. 154(1): 308-17). Neutrophils were isolated as described above, then resuspended in complete medium at 1×10^6 cells/ml, pretreated with Compound A at 10, 1, 0.1, 0.01, and 0 μM in duplicate at a final DMSO concentration of 0.1% for 10 minutes at 37° C. 5% CO2. Cells were then stimulated with 30 nM fMLF for 30 minutes and then chilled to 4° C. Cells were treated with rabbit IgG (Jackson ImmunoResearch Labs, West Grove, Pa., USA) (10 μg/1×10^6 cells) to block Fc receptors, stained with CD18-FITC and CD11b-PE (Becton Dickinson), and analyzed by flow cytometry on a FACSCalibur. CD18/CD11b expression (mean fluorescence) in the absence of stimulation was subtracted from all samples to obtain inhibition curves and calculate IC50.

In test [2] the test system is LPS-stimulated human PBMC TNF-α production. Description: LPS-induced TNF-α production in human PBMC. It is filed as cell-based. The following applies: LPS 100 ng/ml, 18-20 hours. As for the experimental part:
LPS-induced TNF-α production in Human PBMC: Human peripheral blood mononuclear cells (PBMC) (2×10^5 cells) were plated in 96-well flat-bottom Costar tissue culture plates (Corning, N.Y., USA) in triplicate. Compound A was dissolved in DMSO (Sigma) and further dilutions were done in culture medium immediately before use. The final DMSO concentration in all samples was 0.25%. Various concentration of Compound A was added to cells one hour before stimulation. Cells were stimulated with LPS (Sigma, St. Louis, Mo., USA) at 100 ng/ml, in the absence or presence of Compound A. Cells were incubated for 18-20 hours at 37 in 5% CO2 and supernatants were then collected, diluted with culture medium and assayed for TNF-α levels by ELISA (Endogen, Boston, Mass., USA) (Muller, G. W., et al., J Med Chem, 1996. 39(17): 3238-40).

For test [3], the target named is T1, PDE6 from bovine retinal rod outer segments (Bos taurus, UniProt P11541+P23439).
T1 construct: PDE6 from bovine retinal rod outer segments; from tissue; host or cells: bovine retinal rod outer segments
T1 sequence (P11541 2-856 limits assumed): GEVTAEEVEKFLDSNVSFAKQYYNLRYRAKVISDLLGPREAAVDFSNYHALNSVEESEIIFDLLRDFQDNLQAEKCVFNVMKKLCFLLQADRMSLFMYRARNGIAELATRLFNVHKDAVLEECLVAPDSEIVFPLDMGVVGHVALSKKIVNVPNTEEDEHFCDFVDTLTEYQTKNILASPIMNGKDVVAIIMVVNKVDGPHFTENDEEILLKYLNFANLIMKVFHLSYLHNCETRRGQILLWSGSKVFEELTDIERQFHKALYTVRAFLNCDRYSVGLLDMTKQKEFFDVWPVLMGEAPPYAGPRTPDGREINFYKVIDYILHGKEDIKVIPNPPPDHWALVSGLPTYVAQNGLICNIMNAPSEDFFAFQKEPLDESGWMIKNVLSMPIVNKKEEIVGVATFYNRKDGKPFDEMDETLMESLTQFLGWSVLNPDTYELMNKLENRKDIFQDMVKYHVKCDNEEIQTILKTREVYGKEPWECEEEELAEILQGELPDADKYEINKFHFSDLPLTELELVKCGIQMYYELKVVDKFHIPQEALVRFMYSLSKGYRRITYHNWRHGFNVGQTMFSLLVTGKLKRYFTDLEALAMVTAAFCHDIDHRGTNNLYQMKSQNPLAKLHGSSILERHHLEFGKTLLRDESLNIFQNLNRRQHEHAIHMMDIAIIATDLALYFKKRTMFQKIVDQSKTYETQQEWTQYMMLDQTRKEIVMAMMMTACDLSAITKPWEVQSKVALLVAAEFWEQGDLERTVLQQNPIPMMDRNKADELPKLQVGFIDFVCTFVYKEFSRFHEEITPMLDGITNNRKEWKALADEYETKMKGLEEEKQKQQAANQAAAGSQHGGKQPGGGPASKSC
T1 sequence (P23439 2-850 limits assumed): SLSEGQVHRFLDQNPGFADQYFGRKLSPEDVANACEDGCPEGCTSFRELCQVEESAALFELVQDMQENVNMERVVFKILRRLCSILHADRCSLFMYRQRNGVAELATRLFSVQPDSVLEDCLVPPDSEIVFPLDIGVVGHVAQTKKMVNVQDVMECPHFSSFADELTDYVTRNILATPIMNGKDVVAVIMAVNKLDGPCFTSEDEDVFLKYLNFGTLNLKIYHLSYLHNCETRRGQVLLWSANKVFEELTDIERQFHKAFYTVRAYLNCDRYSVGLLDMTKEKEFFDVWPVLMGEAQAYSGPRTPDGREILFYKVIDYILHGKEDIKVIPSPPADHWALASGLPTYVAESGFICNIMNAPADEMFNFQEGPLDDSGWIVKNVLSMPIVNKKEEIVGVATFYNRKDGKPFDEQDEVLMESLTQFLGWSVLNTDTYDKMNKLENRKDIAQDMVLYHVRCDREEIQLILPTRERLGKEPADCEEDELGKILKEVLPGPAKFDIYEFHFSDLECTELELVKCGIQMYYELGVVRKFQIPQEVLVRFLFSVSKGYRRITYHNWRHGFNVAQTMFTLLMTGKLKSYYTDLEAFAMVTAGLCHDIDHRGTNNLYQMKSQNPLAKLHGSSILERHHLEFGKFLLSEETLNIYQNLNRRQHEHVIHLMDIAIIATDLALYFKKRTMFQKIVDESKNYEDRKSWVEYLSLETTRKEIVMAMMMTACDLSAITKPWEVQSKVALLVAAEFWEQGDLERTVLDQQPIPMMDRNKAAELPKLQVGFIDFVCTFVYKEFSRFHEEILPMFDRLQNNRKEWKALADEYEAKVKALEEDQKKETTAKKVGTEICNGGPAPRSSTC
Description: Specificity: PDE6. Type of test: biochemical. How it is done:
(§1) The specificity of Compound A for PDE4 was assessed by testing at a single concentration (10 μM) against bovine PDE1, human PDE2, PDE3 and PDE5 from human platelets, and PDE6 from bovine retinal rod outer segments.

For the next test, the system named is Lymph node cells (LNC). Description: Lymph node cells of collagen-immunized mice stimulated in vitro with type II collagen or anti-CD3 mAb. It is filed as cell-based. To be noted: FIG. 6. The source says: Ex Vivo Procedure: Mice were bled and lymph nodes were excised. Lymph node cells (LNC) were stimulated in vitro with antigen (type II collagen) or mitogen (anti-CD3 mAb) in the presence of Compound A.

The test system of test [4] is LPS-induced serum TNF-α in female BALB/c mice. Description: Mouse LPS-induced serum TNF-α production. It is filed as in vivo. To be noted: po. As for the experimental part: Mouse LPS-induced serum TNF-α production: Compound A was administered to female BALB/c mice orally by gavage two hours prior to LPS challenge. Blood was drawn 1.5 hours after LPS challenge, and serum TNF-α was measured as described above.

The target in test [5] is T2, PDE5 from human platelets (Homo sapiens, UniProt O76074).
T2 construct: PDE3 and PDE5 from human platelets; from tissue; host or cells: human platelets
The test can be described thus: Specificity: PDE5. It is filed as biochemical. As for the experimental part:
as §1

For test [6], the system named is LPS-stimulated human whole blood TNF-α production. Description: LPS-induced TNF-α production in human whole blood. Type of test: cell-based. How it is done: LPS-induced TNF-α production in Human Whole Blood: The ability of Compound A to inhibit LPS-induced TNF-α production by human whole blood was measured as described above for the LPS-induced TNF-α assay in human PBMC, except that freshly drawn whole blood was used instead of PBMC.

In test [7] the test system is fMLF-induced neutrophil LTB4 production. The test can be described thus: fMLF-induced neutrophil LTB4 production. It is filed as cell-based. The following applies: Homo sapiens, 0.5 h, 1 μM fMLP, 30 minutes. How it is done:
Formyl-Met-Leu-Phe (fMLP, Sigma) is a bacterially derived peptide that activates neutrophils to rapidly degranulate, migrate, and adhere to endothelial cells. Among the contents of the neutrophil granule is leukotriene B4 (LTB4), a product of arachidonic acid metabolism and itself a neutrophil stimulant. Compound A was tested for the ability to block fMLF-induced neutrophil LTB4 production.
Human neutrophils were isolated from human leukocyte units by dextran sedimentation as described in Coligan, J. E., et al., Current Protocols in Immunology, ed. R. Coico. Vol. 2. 2002: 2-3. The neutrophils were resuspended in phosphate-buffered saline without calcium or magnesium (BioWhittaker) containing 10 mM HEPES pH 7.2 and plated in 96-well tissue culture plates at a concentration of 1.7×10^6 cells/well. Cells were treated with 50 μM thimerosal (Sigma)/1 mM CaCl2/1 mM MgCl2 for 15 minutes at 37° C. 5% CO2, then treated with Compound A in a final DMSO concentration of 0.01% in duplicate for 10 minutes. Neutrophils were stimulated with 1 μM fMLP for 30 minutes, then lysed by the addition of methanol (20% final concentration) and frozen in a dry ice/isopropanol bath for 10 minutes. Lysates were stored at −70° C. until the LTB4 content was measured by competitive LTB4 ELISA (R&D systems).

Test [8] relates to PDE4 enzyme purified from U937 human monocytic cells. Description: PDE4 inhibition. Type of test: biochemical. As for the experimental part:
PDE4 enzyme was purified from U937 human monocytic cells by gel filtration chromatography (Muller et al. 1998, Bioorg. & Med. Chem. Lett. 1998. 8 (19):2669-74). Phosphodiesterase reactions were carried out in 50 MM Tris HCl pH 7.5, 5 mM MgCl2, 1 μM cAMP, 10 nM [^3H]-cAMP for 30 min at 30, terminated by boiling, treated with 1 mg/ml snake venom, and separated using AG-lXS ion exchange resin (BioRad).
as §1

Values joined by “and” are separate entries in the source; they are usually repeats but may differ in a detail not shown here. Equal entries are not always repeated.

Consider `CCOc1cc([C@@H](CS(C)(=O)=O)N2Cc3cccc(NC(=O)C4CC4)c3C2=O)ccc1OC` [Compound A, cyclopropyl-N-{2-[(1S)-1-(3-ethoxy-4-methoxyphenyl)-2-(methylsulfonyl)ethyl]-3-oxoisoindoline-4-yl}carboxamide], for which the half-inhibitory concentration (IC50) in test [1] is 23 nM and 0.011 µg/mL; in test [2], 51 nM and 0.024 µg/mL; in test [6], 240 nM and 0.11 µg/mL; in test [7] it was 10 nM and 0.0047 µg/mL; in test [8] (1 μM cAMP), 100 nM. Further, the inhibition at 10 µM in test [3] was 17%; in [5], -7%. Also, the “production of the Th2 cytokine IL-5” value with Lymph node cells (LNC) was “unaffected”. Moreover, the IFN-γ production result with Lymph node cells (LNC) (dose-dependent) is recorded as “inhibited”. For the same molecule, the T cell proliferation entry in the test with Lymph node cells (LNC) (dose-dependent) is given as “inhibited”. In the test on Lymph node cells (LNC) (dose-dependent), the TNF-α production entry is on record as “inhibited”. Also, in test [4] (2 h, 0.1 mg/kg p.o., two hours prior to LPS, n=2, read-out: inhibition of mouse LPS-induced serum TNF-α levels), the inhibition at 0.1 mg/kg came out at 3%. In [4] (2 h, 1 mg/kg p.o., two hours prior to LPS, n=2, read-out: inhibition of mouse LPS-induced serum TNF-α levels), the inhibition at 1 mg/kg is 83%. In addition, the ED50 in [4] (read-out: Mouse LPS-induced serum TNF-α inhibition ED50) is 0.1 to 1 mg/kg. In addition, the “PDE4 IC50 (from U937 cells)” value in [8] (1 μM cAMP) is 0.05 µg/mL. The molecule also had a PDE4 % inhibition in test [8] (at 10 μM) of 95%.
